Like-named read-outs stand apart in the source and are kept apart here.

Series [1] in a line: pharmacokinetics study of K-142 after oral administration to mice. The format is in vivo, CD1 mice. The note with it: 20 mg/kg. How it is done: The method has been applied to a pharmacokinetic study of the agent K-142 in mice (n = 8). The substance was administered to the animals orally at a dose of 20 mg/kg. After drug administration, blood samples were taken from the tail vein and treated with the precipitating solution, and the samples were analyzed.
The maximum values of concentrations observed for animals vary in the range from 15 to 90 ng/mL, and the average value is about 46 ng/mL. Thereafter, the content of the substance in the blood gradually decreases, and almost complete excretion is achieved in about 2 h. As the average concentration of K-142 in mice blood was c.a. 3.1 ng/mL, which is below LLOQ, this time point was not included in calculation of pharmacokinetics parameters and is shown in Figure 5 just for information. Due to the same reason, the data on the concentrations of the agent K-142 in animal #8 were also not taken into account for the calculation. The averaged values of pharmacokinetic parameters were calculated for a period of time from 0 to 60 min and are given in Table 1.
Experiments were performed on adult CD1 mice (n = 8) weighing 30–40 g. Animals were obtained from the animal facility of the Institute of Cytology and Genetics SB RAS and kept under standard conditions with free access to food and water. All experiments were performed in accordance with the “European Convention for the Protection of Vertebrate Animals Used for Experimental and other Scientific Purposes”, 1986.
Pharmacokinetics of the agent K-142 was studied at a dose of 20 mg/kg after its oral administration. To prepare the dosage form, a weight of the substance was mixed with c.a. 20 µL of Tween-80 followed by the dilution of the sample with physiological saline to a volume of 0.2 mL per 10 g of mouse bodyweight. Blood aliquots (10 µL) were taken in duplicate from the animal tail vein 10, 20, 30, 45 min, 1, 1.5, 2, 2.5 3, 4, 5 and 6 h after substance administration. The samples were mixed with the precipitation solution and processed according to the protocol and analyzed. Pharmacokinetic parameters were calculated using PKSolver and are presented as mean ± standard error of mean (SEM).

The next series concerns RSV serotype B. Further details: method as in PMID 34946573. The settings on record: cited from earlier work.
Series [2] in a line: stability study in whole mice blood in vitro. The format is in vitro ADME. The note with it: spike 1000 ng/mL, aliquots 5-240 min, peak area. How it is done: To study the stability of K-142 in whole blood of mice, a spike containing the substance at the concentration of 1000 ng/mL was prepared. After preparation, the spike was placed on a shaker and shaken throughout the experiment. Aliquots of the spike with a volume of 50 μL were taken after 5, 10, 15, 30, 60, 120, 180 and 240 min, after which the sample was prepared and analyzed, and K-142 peak area in obtained chromatograms was measured.
It can be seen from the chart (Figure S1) showing the K-142 peak area in the chromatogram that no decrease in its concentration happens for at least 4 h.

Another series relates to RSV serotype A. Details: method as in PMID 34946573. The note with it: cited from earlier work.
On the set-up of series [3]: method as in PMID 31847686. The note with it: ICR mice, oral, cited from earlier work.
Details of series [4]: method as in PMID 27420975. The settings on record: rats, cited from earlier work.
The mark [5] stands for this setting: CD1, mouse, whole blood, mean ± SEM, calculated 0-60 min, animal #8 excluded.

What is called AUC(0-inf) is the area under the concentration-time curve extrapolated to infinity. One may read the Cmax as the maximum level reached in the sampled fluid or tissue. One may read the half-life as how long it takes for the measured level to halve. For orientation: IC50 means the concentration needed to halve the response being measured. For the molecule `CC1(C)C2CC=C(COc3ccc4c5c(c(=O)oc4c3)CCCC5)C1C2` (centres unmarked) [K-142], the CL entry in series [1] (mean ± SEM, calculated 0-60 min, animal #8 excluded) is given as “(1.3 ± 0.2) × 10^−2 (mg/kg)/(ng/mL)/min”. Moreover, in series [1] (whole blood), the “time at which maximum concentration is reached” value worked out at 10 min and the “time to almost complete excretion” value was “about 2 h”. For the same molecule, the concentration at 2 h in series [1] (CD1, mouse, whole blood, below LLOQ (5 ng/mL), not used for PK calculation, read-out: average concentration in mice blood at about 2 h) was about 0.0031 µg/mL. In series [1] (setting [5]), the AUC(0-inf) was 0.0262 µg·h/mL, the highest concentration (Cmax) was 0.0634 ± 0.0191 µg/mL and the half-life was 27.7 ± 5.4 min. Besides, in series [1] (CD1, mouse, whole blood, mean ± SEM, calculated 0-60 min, animal #8 excluded, read-out: MRT0–∞ (converted)), the MRT inf is 40.5 min. Moreover, in the series with RSV serotype B, the IC50 was 5 µM. In series [2], the “time with no decrease in concentration (stability)” value is on record as “at least 4 h”. In the series with RSV serotype A (RSV serotype A), the IC50 is 5 µM. Further, the “selectivity index (SI)” value in the series with RSV serotype A (RSV, serotype not specified for SI) is on record as 77.
A word on the Tmax: it is the time from dosing to the highest level. For `CC(C)=CCc1c(O)ccc2ccc(=O)oc12` [osthenol], in series [3] (5 mg/kg), the Cmax is 0.0661 ± 0.0032 µg/mL and the Tmax is 36.3 ± 13.8 min. Moreover, in series [3] (20 mg/kg), the Cmax is 0.056 ± 0.0291 µg/mL and the Tmax was 6.3 ± 1.3 min. The “bioavailability (in words)” value in series [3] (5 and 20 mg/kg) is “very low bioavailability”.
As usually defined, the bioavailability is the share of a dose that reaches the circulation, judged against a reference dose that is usually intravenous. Regarding `CC(C)=CCC/C(C)=C/COc1ccc2ccc(=O)oc2c1` [auraptene], in series [4] (oral, 100 mg/kg, plasma), the time to peak (Tmax) is 108.0 ± 25.3 min and the “maximum concentration in blood plasma” value is on record as 1719 ± 384.3 ng/mL. In series [4], the bioavailability was 8.5%.

Values taken from PMC9504583, “Stability Study, Quantification Method and Pharmacokinetics Investigation of a Coumarin–Monoterpene Conjugate Possessing Antiviral Properties against Respiratory Syncytial Virus” (Pharmaceuticals, 2022).
